This note sets out measurements from BindingDB's records for doi:10.1038/nchembio.1629 (George Washington University, 2014).

Assay [1] deals with T1, Serine/threonine-protein kinase haspin [465-798] (Homo sapiens, UniProt Q8TF76).
T1 construct: 465-798
T1 sequence (Q8TF76 whole entry): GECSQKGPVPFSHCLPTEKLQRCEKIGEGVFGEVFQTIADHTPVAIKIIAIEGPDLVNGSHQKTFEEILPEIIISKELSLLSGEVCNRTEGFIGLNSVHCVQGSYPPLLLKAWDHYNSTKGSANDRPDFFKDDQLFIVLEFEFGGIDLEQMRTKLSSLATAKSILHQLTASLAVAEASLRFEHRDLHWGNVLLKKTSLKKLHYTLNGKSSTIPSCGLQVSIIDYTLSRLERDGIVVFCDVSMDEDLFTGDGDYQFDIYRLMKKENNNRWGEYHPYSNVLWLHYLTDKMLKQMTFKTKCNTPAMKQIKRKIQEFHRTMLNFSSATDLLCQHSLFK
The experiment in a line: Selectivity screening. Here is the method:
(§1) The IC50 values of selected kinases were determined using either Z'LYTE, Adapta or LanthaScreen assays.

In assay [2] the target is Mitogen-activated protein kinase 10 (Homo sapiens, UniProt P53779). Put plainly: Selectivity screening. Here is the method:
as §1

Assay [3] addresses Casein kinase II subunit alpha' (Homo sapiens, UniProt P19784). Put plainly: Selectivity screening. Here is the method:
as §1

In assay [4] the target is Dual specificity protein kinase CLK2 (Homo sapiens, UniProt P49760). The experiment in a line: Selectivity screening. Here is the method:
as §1

Assay [5] has as its target Mitogen-activated protein kinase kinase kinase kinase 4 (Homo sapiens, UniProt O95819). Put plainly: Selectivity screening. Here is the method:
as §1

Assay [6] concerns the target T2, Dual specificity mitogen-activated protein kinase kinase 3 (Homo sapiens, UniProt P46734).
T2 sequence (P46734 whole entry): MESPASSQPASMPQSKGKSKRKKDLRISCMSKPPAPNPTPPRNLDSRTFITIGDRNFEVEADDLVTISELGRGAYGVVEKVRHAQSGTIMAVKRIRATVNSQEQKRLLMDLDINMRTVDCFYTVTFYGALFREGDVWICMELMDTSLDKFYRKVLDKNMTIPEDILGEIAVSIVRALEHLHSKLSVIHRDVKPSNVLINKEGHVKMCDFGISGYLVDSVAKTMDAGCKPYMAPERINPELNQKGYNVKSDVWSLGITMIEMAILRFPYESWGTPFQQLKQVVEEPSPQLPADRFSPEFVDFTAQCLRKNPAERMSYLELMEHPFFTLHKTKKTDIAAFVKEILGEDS
Put plainly: Selectivity screening. Here is the method:
as §1

The target of assay [7] is T3, Mitogen-activated protein kinase 3 (Homo sapiens, UniProt P27361). The experiment in a line: Selectivity screening. Here is the method:
as §1

Assay [8] deals with T4, Mitogen-activated protein kinase 8 [1-363] (Homo sapiens, UniProt P45983).
T4 construct: 1-363
T4 sequence (P45983 1-363): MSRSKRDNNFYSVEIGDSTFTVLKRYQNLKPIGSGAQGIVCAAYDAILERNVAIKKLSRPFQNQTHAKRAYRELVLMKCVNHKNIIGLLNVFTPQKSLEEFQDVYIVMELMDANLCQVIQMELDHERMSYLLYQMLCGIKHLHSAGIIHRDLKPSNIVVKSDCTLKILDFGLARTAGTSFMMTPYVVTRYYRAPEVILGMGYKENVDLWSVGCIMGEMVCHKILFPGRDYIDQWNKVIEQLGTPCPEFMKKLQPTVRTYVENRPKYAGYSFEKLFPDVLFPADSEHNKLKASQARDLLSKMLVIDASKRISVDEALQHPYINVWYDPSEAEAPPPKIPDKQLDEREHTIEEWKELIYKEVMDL
The experiment in a line: Selectivity screening. Here is the method: as §1

For assay [9], the target named is T5, Serine/threonine-protein kinase 17A (Homo sapiens, UniProt Q9UEE5).
T5 sequence (Q9UEE5 whole entry): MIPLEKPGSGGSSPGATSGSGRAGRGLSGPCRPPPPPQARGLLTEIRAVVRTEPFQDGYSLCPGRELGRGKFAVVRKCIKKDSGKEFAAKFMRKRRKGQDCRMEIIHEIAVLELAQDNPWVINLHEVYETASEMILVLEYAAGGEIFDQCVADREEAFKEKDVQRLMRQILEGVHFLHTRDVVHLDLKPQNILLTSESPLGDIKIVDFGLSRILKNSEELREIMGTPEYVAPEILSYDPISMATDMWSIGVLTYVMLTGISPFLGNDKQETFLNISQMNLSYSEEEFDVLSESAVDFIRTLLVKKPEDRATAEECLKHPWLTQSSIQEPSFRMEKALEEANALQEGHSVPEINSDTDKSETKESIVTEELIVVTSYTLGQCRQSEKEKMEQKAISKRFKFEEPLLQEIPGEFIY
The experiment in a line: Selectivity screening. Here is the method: as §1

Assay [10] addresses Dual specificity protein kinase CLK1 (Homo sapiens, UniProt P49759). The experiment in a line: Selectivity screening. The method, then: as §1
For assay [11], the target named is T6, Serine/threonine-protein kinase D1 (Homo sapiens, UniProt Q15139).
T6 sequence (Q15139 whole entry): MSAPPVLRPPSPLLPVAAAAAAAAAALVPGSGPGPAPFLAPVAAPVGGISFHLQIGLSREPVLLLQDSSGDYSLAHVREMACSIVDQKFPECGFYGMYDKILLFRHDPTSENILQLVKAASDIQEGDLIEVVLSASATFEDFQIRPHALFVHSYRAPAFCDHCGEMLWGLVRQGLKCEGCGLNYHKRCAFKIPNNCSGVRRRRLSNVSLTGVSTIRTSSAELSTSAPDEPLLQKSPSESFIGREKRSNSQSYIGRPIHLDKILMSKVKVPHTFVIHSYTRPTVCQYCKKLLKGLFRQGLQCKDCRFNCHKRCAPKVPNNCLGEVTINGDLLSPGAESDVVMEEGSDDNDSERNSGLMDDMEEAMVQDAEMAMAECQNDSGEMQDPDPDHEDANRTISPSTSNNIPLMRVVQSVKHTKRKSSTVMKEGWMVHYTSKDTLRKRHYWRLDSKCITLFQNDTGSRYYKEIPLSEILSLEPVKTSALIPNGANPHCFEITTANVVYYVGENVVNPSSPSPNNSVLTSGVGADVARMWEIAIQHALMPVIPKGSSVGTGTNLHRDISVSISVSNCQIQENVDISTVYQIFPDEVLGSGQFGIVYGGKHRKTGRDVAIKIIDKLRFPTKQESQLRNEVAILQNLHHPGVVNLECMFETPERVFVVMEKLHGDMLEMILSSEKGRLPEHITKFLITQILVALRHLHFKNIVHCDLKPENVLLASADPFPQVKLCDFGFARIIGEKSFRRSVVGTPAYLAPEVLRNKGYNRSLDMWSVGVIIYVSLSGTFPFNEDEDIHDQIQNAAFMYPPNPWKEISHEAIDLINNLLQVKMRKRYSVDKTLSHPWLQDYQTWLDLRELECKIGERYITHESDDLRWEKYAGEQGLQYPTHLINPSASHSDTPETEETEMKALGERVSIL
The experiment in a line: Selectivity screening. The method, then:
as §1

The target in another assay is Misshapen-like kinase 1 (Homo sapiens, UniProt Q8N4C8). The experiment in a line: Selectivity screening. Here is the method:
as §1

In assay [12] the target is T7, Dual specificity protein kinase TTK (Homo sapiens, UniProt P33981).
T7 sequence (P33981 whole entry): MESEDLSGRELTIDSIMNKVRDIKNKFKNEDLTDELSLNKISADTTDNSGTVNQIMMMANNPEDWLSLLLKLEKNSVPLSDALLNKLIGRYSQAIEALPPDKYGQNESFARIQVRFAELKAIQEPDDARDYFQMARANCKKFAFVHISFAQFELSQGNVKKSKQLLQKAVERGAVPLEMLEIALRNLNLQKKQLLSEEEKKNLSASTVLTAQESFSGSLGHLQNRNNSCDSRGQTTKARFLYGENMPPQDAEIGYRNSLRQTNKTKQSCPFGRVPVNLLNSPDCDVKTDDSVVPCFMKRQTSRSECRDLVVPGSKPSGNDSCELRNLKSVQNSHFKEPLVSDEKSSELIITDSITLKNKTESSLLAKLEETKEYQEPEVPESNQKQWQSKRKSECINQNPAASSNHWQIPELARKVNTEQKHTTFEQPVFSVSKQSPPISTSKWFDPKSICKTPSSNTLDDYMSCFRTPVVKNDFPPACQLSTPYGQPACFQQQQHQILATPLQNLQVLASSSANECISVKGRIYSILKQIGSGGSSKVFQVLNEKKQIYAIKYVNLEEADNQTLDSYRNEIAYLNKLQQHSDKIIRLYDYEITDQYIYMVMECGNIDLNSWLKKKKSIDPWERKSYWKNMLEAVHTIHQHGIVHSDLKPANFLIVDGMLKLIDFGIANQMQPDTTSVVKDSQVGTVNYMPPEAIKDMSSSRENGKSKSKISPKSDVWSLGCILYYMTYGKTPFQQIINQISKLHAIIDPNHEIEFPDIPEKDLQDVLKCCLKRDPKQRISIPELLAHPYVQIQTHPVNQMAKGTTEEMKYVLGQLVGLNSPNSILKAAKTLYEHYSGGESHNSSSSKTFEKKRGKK
The experiment in a line: Selectivity screening. The method, then:
as §1

The next assay concerns the target T8, Aurora kinase C (Homo sapiens, UniProt Q9UQB9).
T8 sequence (Q9UQB9 whole entry): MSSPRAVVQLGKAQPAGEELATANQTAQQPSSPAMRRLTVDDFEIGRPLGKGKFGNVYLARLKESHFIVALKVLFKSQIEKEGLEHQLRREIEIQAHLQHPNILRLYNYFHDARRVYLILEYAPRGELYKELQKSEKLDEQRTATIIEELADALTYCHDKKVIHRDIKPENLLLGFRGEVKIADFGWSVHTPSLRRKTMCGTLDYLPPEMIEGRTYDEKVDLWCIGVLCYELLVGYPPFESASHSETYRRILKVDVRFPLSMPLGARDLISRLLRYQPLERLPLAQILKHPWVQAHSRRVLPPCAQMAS
The experiment in a line: Selectivity screening. The method, then: as §1

Assay [13] has as its target Mitogen-activated protein kinase 9 (Homo sapiens, UniProt P45984). The experiment in a line: Selectivity screening. Here is the method: as §1
Assay [14] deals with T1, Serine/threonine-protein kinase haspin [465-798]. The experiment in a line: ITC. The conditions noted are these: pH 7.5; 15 °C. Here is the method:
(§2) For ERK1 and ERK2, the buffer contained 20 mM HEPES (pH 7.5), 150 mM NaCl and 0.5 mM TCEP. For haspin, the buffer contained 20 mM HEPES (pH 7.5), 250 mM NaCl and 0.5 mM TCEP. Titration was performed at 15 °C by injecting 100 µM protein into a reaction cell containing the inhibitors (7 µM).

The target in assay [15] is T3, Mitogen-activated protein kinase 3. Put plainly: ITC. The following applies: pH 7.5; 15 °C. Here is the method: as §2

T3 sequence (P27361 whole entry): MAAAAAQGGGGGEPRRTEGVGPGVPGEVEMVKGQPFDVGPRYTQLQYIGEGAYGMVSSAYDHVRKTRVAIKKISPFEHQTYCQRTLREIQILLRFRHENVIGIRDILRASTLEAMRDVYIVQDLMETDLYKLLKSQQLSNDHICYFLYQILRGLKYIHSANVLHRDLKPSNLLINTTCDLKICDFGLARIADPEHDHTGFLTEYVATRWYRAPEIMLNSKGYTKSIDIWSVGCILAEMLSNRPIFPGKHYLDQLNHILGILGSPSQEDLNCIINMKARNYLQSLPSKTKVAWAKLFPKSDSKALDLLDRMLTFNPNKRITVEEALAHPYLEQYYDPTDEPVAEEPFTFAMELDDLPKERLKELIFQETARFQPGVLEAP
Sequence of Mitogen-activated protein kinase kinase kinase kinase 4 (O95819 whole entry): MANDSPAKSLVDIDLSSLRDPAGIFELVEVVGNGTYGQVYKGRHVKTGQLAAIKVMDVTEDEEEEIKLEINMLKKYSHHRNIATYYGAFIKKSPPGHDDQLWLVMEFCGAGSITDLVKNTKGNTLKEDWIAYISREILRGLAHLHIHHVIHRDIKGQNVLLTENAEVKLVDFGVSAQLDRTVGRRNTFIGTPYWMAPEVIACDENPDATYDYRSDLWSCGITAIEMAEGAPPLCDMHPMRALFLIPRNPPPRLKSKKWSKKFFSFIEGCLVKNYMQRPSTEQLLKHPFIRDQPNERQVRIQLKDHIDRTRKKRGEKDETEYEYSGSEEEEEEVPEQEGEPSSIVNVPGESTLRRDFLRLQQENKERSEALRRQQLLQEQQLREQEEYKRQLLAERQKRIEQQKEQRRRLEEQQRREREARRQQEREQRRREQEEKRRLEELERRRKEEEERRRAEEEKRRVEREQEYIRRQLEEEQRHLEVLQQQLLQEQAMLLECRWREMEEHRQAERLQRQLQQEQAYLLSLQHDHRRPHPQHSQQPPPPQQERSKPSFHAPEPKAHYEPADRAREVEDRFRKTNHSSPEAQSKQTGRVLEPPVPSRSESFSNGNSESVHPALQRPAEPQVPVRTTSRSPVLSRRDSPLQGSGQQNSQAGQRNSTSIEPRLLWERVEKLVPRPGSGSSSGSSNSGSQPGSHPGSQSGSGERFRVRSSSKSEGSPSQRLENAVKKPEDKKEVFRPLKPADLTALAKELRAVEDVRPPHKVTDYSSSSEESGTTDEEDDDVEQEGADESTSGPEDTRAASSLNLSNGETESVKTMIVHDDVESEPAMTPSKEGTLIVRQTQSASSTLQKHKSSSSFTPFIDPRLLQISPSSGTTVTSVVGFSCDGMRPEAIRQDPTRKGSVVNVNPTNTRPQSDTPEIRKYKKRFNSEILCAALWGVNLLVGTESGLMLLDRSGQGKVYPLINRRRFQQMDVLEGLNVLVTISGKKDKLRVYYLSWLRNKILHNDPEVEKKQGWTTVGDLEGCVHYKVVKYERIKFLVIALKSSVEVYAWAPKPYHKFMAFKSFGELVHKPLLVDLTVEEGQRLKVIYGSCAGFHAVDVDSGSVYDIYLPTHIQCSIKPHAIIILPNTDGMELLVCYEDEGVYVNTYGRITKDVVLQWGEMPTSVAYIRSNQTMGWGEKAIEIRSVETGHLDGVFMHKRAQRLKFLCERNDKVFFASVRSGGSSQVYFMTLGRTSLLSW
Sequence of Misshapen-like kinase 1 (Q8N4C8 whole entry): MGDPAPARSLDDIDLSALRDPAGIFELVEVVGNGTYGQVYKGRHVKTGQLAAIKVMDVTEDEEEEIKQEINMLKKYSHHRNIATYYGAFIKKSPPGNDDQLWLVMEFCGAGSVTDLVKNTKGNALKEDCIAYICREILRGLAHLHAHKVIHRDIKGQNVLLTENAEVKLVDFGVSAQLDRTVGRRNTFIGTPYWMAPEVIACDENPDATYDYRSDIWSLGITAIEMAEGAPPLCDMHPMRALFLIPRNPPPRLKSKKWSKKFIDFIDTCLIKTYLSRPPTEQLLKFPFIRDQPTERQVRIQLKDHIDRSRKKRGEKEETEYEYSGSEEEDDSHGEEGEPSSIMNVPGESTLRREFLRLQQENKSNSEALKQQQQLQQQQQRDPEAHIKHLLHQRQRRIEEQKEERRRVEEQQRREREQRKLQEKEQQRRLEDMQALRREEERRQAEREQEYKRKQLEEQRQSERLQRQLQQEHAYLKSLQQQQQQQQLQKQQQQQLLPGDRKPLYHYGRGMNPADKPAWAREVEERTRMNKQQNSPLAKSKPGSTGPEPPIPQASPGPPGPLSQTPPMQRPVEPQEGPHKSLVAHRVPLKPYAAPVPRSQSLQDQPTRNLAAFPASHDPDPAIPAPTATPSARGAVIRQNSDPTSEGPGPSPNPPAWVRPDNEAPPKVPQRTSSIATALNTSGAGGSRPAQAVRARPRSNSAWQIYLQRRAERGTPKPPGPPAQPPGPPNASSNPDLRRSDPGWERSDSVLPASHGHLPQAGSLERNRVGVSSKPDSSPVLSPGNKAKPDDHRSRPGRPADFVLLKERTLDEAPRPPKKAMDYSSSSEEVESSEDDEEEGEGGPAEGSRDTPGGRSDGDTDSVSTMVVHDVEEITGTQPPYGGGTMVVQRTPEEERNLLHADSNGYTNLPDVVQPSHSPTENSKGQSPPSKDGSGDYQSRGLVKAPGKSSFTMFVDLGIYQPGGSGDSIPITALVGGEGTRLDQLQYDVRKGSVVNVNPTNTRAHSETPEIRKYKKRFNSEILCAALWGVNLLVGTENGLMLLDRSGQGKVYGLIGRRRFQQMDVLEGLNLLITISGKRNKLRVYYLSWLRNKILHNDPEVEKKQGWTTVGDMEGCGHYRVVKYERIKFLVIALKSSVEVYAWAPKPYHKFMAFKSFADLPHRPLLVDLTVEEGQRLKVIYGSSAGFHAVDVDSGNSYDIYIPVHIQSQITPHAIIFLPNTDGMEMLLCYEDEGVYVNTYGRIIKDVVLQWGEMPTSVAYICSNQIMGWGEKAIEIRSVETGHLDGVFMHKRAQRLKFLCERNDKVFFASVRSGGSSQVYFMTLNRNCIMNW
Sequence of Mitogen-activated protein kinase 9 (P45984 whole entry): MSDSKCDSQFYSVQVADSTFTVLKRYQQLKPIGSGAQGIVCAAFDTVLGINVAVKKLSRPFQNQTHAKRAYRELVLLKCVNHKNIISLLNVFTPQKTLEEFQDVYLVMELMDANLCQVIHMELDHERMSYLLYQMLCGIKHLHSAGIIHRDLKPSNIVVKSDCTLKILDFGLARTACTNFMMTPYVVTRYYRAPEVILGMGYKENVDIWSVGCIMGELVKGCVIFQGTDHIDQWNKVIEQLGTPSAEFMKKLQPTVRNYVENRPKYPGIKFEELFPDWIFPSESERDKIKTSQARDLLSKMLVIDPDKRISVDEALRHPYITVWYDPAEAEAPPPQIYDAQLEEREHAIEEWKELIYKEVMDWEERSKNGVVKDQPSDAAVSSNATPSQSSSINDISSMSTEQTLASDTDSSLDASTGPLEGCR
Sequence of Casein kinase II subunit alpha' (P19784 whole entry): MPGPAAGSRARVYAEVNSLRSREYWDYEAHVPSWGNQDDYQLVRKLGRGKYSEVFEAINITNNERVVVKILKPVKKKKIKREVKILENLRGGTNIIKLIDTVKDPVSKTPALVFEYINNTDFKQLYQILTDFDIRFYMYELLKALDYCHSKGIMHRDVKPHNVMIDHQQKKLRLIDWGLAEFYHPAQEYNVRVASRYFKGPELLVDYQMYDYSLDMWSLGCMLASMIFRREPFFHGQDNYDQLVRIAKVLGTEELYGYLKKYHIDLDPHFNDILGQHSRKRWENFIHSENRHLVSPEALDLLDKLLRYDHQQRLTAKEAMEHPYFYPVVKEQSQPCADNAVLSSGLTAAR
Sequence of Mitogen-activated protein kinase 10 (P53779 whole entry): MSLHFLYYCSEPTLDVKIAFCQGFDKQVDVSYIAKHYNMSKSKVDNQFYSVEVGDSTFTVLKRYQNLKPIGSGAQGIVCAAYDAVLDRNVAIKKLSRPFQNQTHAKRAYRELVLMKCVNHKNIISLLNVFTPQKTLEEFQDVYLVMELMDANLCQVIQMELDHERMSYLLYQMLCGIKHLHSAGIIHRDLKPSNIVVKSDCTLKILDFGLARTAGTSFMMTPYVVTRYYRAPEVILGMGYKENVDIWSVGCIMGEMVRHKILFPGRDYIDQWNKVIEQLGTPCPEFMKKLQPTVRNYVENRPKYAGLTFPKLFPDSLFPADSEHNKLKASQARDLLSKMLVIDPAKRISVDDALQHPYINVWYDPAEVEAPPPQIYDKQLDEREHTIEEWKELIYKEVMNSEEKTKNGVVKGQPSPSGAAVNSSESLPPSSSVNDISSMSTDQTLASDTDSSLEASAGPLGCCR
Sequence of Dual specificity protein kinase CLK1 (P49759 whole entry): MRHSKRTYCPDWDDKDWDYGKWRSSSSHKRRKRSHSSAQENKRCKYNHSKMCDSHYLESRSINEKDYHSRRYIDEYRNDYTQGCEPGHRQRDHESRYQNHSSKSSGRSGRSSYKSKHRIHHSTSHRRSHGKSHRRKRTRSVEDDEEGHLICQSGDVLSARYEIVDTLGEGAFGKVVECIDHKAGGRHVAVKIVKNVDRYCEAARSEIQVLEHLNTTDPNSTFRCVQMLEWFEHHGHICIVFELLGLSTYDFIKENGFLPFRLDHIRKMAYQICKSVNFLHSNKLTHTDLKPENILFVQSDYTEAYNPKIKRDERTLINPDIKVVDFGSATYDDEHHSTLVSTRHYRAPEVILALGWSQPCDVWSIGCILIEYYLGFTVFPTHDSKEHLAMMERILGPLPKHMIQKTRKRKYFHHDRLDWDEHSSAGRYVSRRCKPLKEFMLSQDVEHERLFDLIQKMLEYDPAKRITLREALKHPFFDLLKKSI

For `O=C(Nc1ccc2[nH]nc(-c3ccncc3)c2c1)[C@H]1CCN(CC(=O)N2CCN(c3ccc(-c4ncccn4)cc3)CC2)C1` [SCH772984], the IC50 is 398 nM in [1]; 632 nM in assay [2]; greater than 10000 nM in assay [3]; 104 nM in [4]; 503 nM in [5]; 304 nM in assay [6]. For the same compound, the IC50 in assay [7] worked out at 8.3 nM; in assay [8] it was 1080 nM; in [9], 114 nM; in assay [10], 508 nM; in assay [11], 535 nM; against Misshapen-like kinase 1, 942 nM. The IC50 was 193 nM in assay [12], 580 nM on Aurora kinase C and 783 nM in assay [13]. In addition, the values for the Kd in assay [14] and in assay [15] were 297 nM and 213 nM, respectively.
